For one data set, the system named is red blood cells. In words: Hemolysis assay. It is filed as cell-based, human. As to conditions: 2 hr treatment with 333 μM. The procedure: Whole human blood in citrate phosphate dextrose was obtained from Bioreclamation LLC, stored at 4° C. and used before expiration date. 100 μL of whole blood was combined with 500 μL saline (0.9% NaCl) and centrifuged for 5 min at 300×g. The supernatant was carefully removed from the erythrocyte pellet and the liquid was discarded. Washed pellet 3× in 500 μL saline. The erythrocyte pellet was resuspended in 800 μL of Red Blood Cell Buffer (10 mM Na2HPO4, 150 mM NaCl, 1 mM MgCl2, pH 7.4). To a 0.5 mL eppendorf tube or a PCR plate was added 1.0 μL of 30× compound in DMSO and 19 μL RBC Buffer. For negative controls, 1.0 μL DMSO was combined with 19 μL RBC buffer. For positive controls, either 20 μL MilliQ H2O or 1.0 μL 30% Triton X-100 were combined with 19 μL RBC Buffer. Tubes or plates were briefly centrifuged. Next, 10 μL of washed erythrocyte suspension was added to each tube, then sealed. After incubation at 37° C. for 2 h, samples were centrifuged for 5 min at 300×g, and 20 μL of supernatant was carefully removed and transferred to wells of a clear flat-bottomed 384-well plate. Absorbance was measured at 540 nm. The data were plotted as compound concentration versus percent hemolysis, and fitted to OriginPro (OriginLab, Northampton, Mass.).

For data set [1], the system named is primary cancer cells from patients with metastatic cancers. In words: 72 hr cell viability Alamar Blue assay in primary patient-derived cells. It is filed as cell-based, human. As to conditions: versus cisplatin, 5-FU, etoposide, PAC-1. The procedure: Cells were grown at 37° C. under a humidified 5% CO2 atmosphere, in a culture medium consisting of high-glucose (Life Technology) DMEM media for Mia PaCa-2, D54, U87, K7-M2, SK-MEL-5, and 3LL cells or RPMI 1640 for ES-2, HCT 116, MDA-MB-231, A549, T47D, B16-F10, and BT-549 cells or McCoy's 5A media for HT29 cells. All media were supplemented with 10% FBS (Gemini), penicillin (50 IU/ml), streptomycin (50 μg/ml) and glutamine (2 mM) (Cellgro). Primary cells were isolated from pleural effusions of metastatic patients at Carle Foundation Hospital (IRB #15149) following a protocol as described previously (Med. Sci. 2, 70-81, (2014)).
To a 384-well plate, 40 μL of 1.25× compound dilution or 1.25% DMSO-containing media was added (final volume of 1% DMSO). Concentrations of compounds tested were 100 μM to 100 nM. On each plate at least 3 technical replicates per compound were performed. Next, 10 μL of a 100,000 cells/mL suspension was added to each well, yielding a final concentration of 1,000 cells/well. To three wells in column 2 was added 1 μL of 10 mM doxorubicin (final concentration of 200 μM) as positive control of cell death. Plates were sealed with gas-permeable seals and incubated at 37° C. for 72 h. […] Fluorescence was read on a Molecular Devices SpectraMax 3 (excitation=555 nm, emission=585 nm, emission cutoff=570 nm). […]
In general terms: The colour change of resazurin is a common sign of viable cells or microbes.

A further data set deals with ES-2 cells. In words: Cellular lipid ROS production (C11-BODIPY). It counts as cell-based. The conditions noted are these: 10 μM. The method, then:
(§1) ES-2, HCT 116, and 4T1 cells (1×10^5 cells/mL) were plated in 12-well plates. Cells were pre-treated for 2 hr with 100 μM deferoxamine followed by treatment with DMSO, 10 μM ferroptocide, 10 μM RSL3, or 100 μM TBHP for 1 hr, 1.5 hr and 2 hr respectively. Cells were washed with HBSS and incubated in the dark for 20 min with 5 μM C11-BODIPY probe. Cells were then washed 2× with HBSS and harvested at 1000×g, 3 min. After resuspension in 500 μl HBSS buffer, samples were analyzed with flow cytometry to record ten thousand events per sample in FL1 channel in BD LSR II Flow Cytometer (BD Bioscience). FCS express V6 De Novo software was used to generate histograms.

The subject of another data set is HCT 116 cells. In words: Cellular lipid ROS production (C11-BODIPY). It counts as cell-based. As to conditions: 10 μM. The method, then: as §1
A further data set concerns 4T1 cells. Kind of data set: Cellular lipid ROS production (C11-BODIPY). The conditions noted are these: 10 μM. It is filed as cell-based, murine. The procedure:
as §1

Take `C[C@@H]1CC[C@@]23C[C@H](O)C(=O)[C@@]2(O)[C@]1(C)[C@H](OC(=O)CCl)C[C@@H](C1=CCn2c(=O)n(-c4ccccc4)c(=O)n2C1)[C@@H]3C` [Compound P18, ferroptocide]: the hemolytic activity result is “no hemolytic activity” in the data set on red blood cells (listed as Ferroptocide) and “Lack of hemolytic activity” with red blood cells (listed as ferroptocide). For the same molecule, the “killing of primary cancer cells versus chemotherapeutics” value in data set [1] is “kills these cancer cells better than approved and experimental chemotherapeutics”. For the same molecule, the “lipid ROS” value in the data set with ES-2 cells, in the data set with HCT 116 cells and in the data set on 4T1 cells was “induces lipid ROS” in each case.

Source of the values: patent US20220089602A1, “COMPOUNDS THAT INDUCE FERROPTIC CELL DEATH” (The Board of Trustees of the University of Illinois, priority 2019, published 2022).
